Where a name gives a salt, the structure may show the parent alone.
Experiments:
Format in all cases: cell-based
tumor cells [1] = test: Traditional soft agar assay, 24-well tray, visual counting of colonies; settings: for IC50: read-out: IC50s Determined from Colony Counting; for Average # of colonies: 24-well tray
Procedure: As a comparison, the same compounds were tested in the traditional hand-pipetted, 24-well plates, visually counted method. The only difference was that the soft agar assay used a 500 μL agarose layer in the 24-well plate and 75 uL/layer in the 96-well system, using the Sigma agarose. The 24-well plates were also counted visually, Table 5, and the IC50s determined, Table 6.

MDA-MB435 = test: Soft agar assay, flavopiridol on already formed one week colonies; settings: Homo sapiens, MDA-MB-435, 168 h, added to colonies formed after 7 days of incubation, read-out: Flavopiridol IC50 (uM) on Formed Colonies, Average ± Standard Error
Procedure: (§1) 25 μL of 10 μM calcein AM (in HBSS) is added to each well and allowed to incubate at 37 deg. C. for at least one hour. The plate is then read in a Cytofluor™ 4000 (3 counts/well) with a gain of 40. The fluorescence for calcein AM (after cleavage in live cells) is excitation=485+20 nm and emission=530+20 nm.
(§2) For analysis, the data provided by the CytoFluor™ are analyzed in EXCEL™. The DMSO control wells are averaged and the standard deviation determined. Each compound well is then divided by the control average×100 for % control. The triplicate wells are averaged and the standard deviation determined. […] The background can be subtracted from each well. Statistical programs such as PRISM could also be used for the graphing and IC50 determination.
(§3) Flavopiridol is added to colonies formed after 7 days of incubation at 37 deg.

Colo 205 = test: as above; settings: Homo sapiens, 168 h, added to colonies formed after 7 days of incubation, read-out: Flavopiridol IC50 (uM) on Formed Colonies, Average ± Standard Error
Procedure: as §1, §2, §3

NCI-H460 = test: as above; settings: Homo sapiens, 168 h, added to colonies formed after 7 days of incubation, read-out: Flavopiridol IC50 (uM) on Formed Colonies, Average ± Standard Error
Procedure: as §1
(§4) For analysis, the data provided by the CytoFluor™ are analyzed in EXCEL™. The DMSO control wells are averaged and the standard deviation determined. Each compound well is then divided by the control average×100 for % control. The triplicate wells are averaged and the standard deviation determined. There is some background fluorescence and the colonies treated after formation are not eliminated by the single two-week treatment. The background can be subtracted from each well. Statistical programs such as PRISM could also be used for the graphing and IC50 determination.
(§5) Table 7. provides the IC50 in micromolar values obtained using flavopiridol on already formed colonies of a number of different cell lines (one week colonies). Flavopiridol is added to colonies formed after 7 days of incubation at […]. This method of adding compounds to already formed colonies may be more predictive for the compound's effectiveness against a tumor in vivo.

PC-3 = test: as above; settings: Homo sapiens, 168 h, added to colonies formed after 7 days of incubation, read-out: Flavopiridol IC50 (uM) on Formed Colonies, Average ± Standard Error
Procedure: as §1, §4, §5

HL-60 = test: as above; settings: Homo sapiens, 168 h, added to colonies formed after 7 days of incubation, read-out: Flavopiridol IC50 (uM) on Formed Colonies, Average ± Standard Error
Procedure: as §1, §4, §5

tumor cells [2] = test: Soft agar assay, hand-pipetted 24-well plates, Calcein AM stained method
Procedure: (§6) 25 μL of 10 μM calcein AM (in HBSS) is added to each well and allowed to incubate at 37 deg. C. for at least one hour. […] The fluorescence for calcein AM (after cleavage in live cells) is excitation=485+20 nm and emission=530+20 nm. For analysis, the data provided by the CytoFluor™ are analyzed in EXCEL™. The DMSO control wells are averaged and the standard deviation determined. Each compound well is then divided by the control average×100 for % control. The triplicate wells are averaged and the standard deviation determined. There is some background fluorescence and the colonies treated after formation are not eliminated by the single two-week treatment. The background can be subtracted from each well. Statistical programs such as PRISM could also be used for the graphing and IC50 determination. […] As a comparison, the same compounds were tested in the traditional hand-pipetted, 24-well plates, visually counted method. The only difference was that the soft agar assay used a 500 μL agarose layer in the 24-well plate and 75 uL/layer in the 96-well system, using the Sigma agarose. The two methods produced similar results, i.e. IC50s for the compounds, see Table 4.

tumor cells [3] = test: Automated soft agar assay, 96-well plates, Calcein AM stained method; settings: read-out: IC50s (μM) with Flavopiridol 96-well
Procedure: as §6, with “It was determined that when plating with the test compound, the individual components, i.e., agarose, cells and compound, were more evenly distributed if premixed in a separate plate before being transferred to the 96-well plate. The test compounds were made 10× in RPMI GM, which was diluted to a 1× compound concentration in the mixing plate. […] Satisfactory results were obtained with the following combinations: 25” for “25”

[4] = flavopiridol added immediately after plating

IC50 (tumor cells [1]; added immediately after plating, 24-well, visual counting): 400 nM
IC50s Determined from Colony Counting (tumor cells [1]; added to 1-week colonies, 24-well, visual counting): did not reach 50% control.
IC50 (tumor cells [1]; plated with Flavo, 24-well, visual counting): 90 nM
IC50 (MDA-MB435): 2.2 ± 0.09 µM
IC50 (Colo 205): 1.4 ± 0.06 µM
IC50 (NCI-H460): 2.4 ± 0.1 µM
IC50 (PC-3): 1.7 ± 0.04 µM
IC50 (HL-60): 1.6 ± 0.15 µM
IC50 (tumor cells [2]; cells plated with flavopiridol): 0.08 µM
IC50 (tumor cells [2]; [4]): 0.4 µM
IC50 (tumor cells [3]; 168 h, flavopiridol added to one week colonies): 1 µM
IC50 (tumor cells [3]; cells plated with flavopiridol): 0.15 µM
IC50 (tumor cells [3]; [4]): 0.6 µM
SMILES: CN1CC[C@H](c2c(O)cc(O)c3c(=O)cc(-c4ccccc4Cl)oc23)[C@H](O)C1 [Flavopiridol, (cis-(−)-5,7-Dihydroxy-2-(2-chlorophenyl)-8-[4-(3-hydroxy-1-methyl)piperidinyl]-4H-1-benzopyran-4-one hydrochloride dihydrate]
Average # of colonies (tumor cells [1]; flavopiridol added immediately after plating, 0.00032 μM): 30
Average # of colonies (tumor cells [1]; flavopiridol added immediately after plating, 0.0016 μM): 30
Average # of colonies (tumor cells [1]; flavopiridol added immediately after plating, 0.008 μM): 32
Average # of colonies (tumor cells [1]; flavopiridol added immediately after plating, 0.04 μM): 26
Average # of colonies (tumor cells [1]; flavopiridol added immediately after plating, 0.2 μM): 27
Average # of colonies (tumor cells [1]; flavopiridol added immediately after plating, 1 μM): 0
Average # of colonies (tumor cells [1]; flavopiridol added immediately after plating, 5 μM): 0
Average # of colonies (tumor cells [1]; flavopiridol added to one-week colonies, 0.0032 μM): 34.0
Average # of colonies (tumor cells [1]; flavopiridol added to one-week colonies, 0.016 μM): 35.0
Average # of colonies (tumor cells [1]; flavopiridol added to one-week colonies, 0.08 μM): 32.0
Average # of colonies (tumor cells [1]; flavopiridol added to one-week colonies, 0.4 μM): 33
Average # of colonies (tumor cells [1]; flavopiridol added to one-week colonies, 2 μM): 25
Average # of colonies (tumor cells [1]; flavopiridol added to one-week colonies, 10 μM): 32
Average # of colonies (tumor cells [1]; flavopiridol added to one-week colonies, 50 μM): 20
Average # of colonies (tumor cells [1]; plated with flavopiridol, 0.00032 μM): 27
Average # of colonies (tumor cells [1]; plated with flavopiridol, 0.0016 μM): 25
Average # of colonies (tumor cells [1]; plated with flavopiridol, 0.008 μM): 22
Average # of colonies (tumor cells [1]; plated with flavopiridol, 0.04 μM): 25
Average # of colonies (tumor cells [1]; plated with flavopiridol, 0.2 μM): 0
Average # of colonies (tumor cells [1]; plated with flavopiridol, 1 μM): 0
Average # of colonies (tumor cells [1]; plated with flavopiridol, 5 μM): 0
